Data: paper PMC12155096 (International Journal of Molecular Sciences, 2025)
Read-outs that look alike come from different tables or passages of the source.

Assays:
[1] = molecular target: T1, human CYP2C9 (Homo sapiens, UniProt P11712); experiment: biochemical
[2] = molecular target: T2, human CYP2C19 (Homo sapiens, UniProt P33261)
[3] = molecular target: T3, human CYP1A2 (Homo sapiens, UniProt P05177); experiment: biochemical
T3 sequence (P05177 1-516): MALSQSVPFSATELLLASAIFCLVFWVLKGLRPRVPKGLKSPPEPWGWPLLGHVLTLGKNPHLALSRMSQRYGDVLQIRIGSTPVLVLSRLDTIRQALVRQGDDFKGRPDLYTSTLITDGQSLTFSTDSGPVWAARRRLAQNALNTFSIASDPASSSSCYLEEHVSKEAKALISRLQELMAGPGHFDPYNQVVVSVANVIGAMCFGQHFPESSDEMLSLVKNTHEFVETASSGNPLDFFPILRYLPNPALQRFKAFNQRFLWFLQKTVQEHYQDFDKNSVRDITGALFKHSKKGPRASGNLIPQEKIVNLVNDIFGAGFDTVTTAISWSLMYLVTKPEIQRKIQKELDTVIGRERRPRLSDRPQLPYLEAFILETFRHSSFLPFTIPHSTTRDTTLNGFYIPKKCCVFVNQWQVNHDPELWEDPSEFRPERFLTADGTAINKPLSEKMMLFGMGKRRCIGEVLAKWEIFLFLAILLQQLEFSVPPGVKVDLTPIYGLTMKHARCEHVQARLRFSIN

[4] = molecular target: CYP3A4 (Homo sapiens, UniProt P08684)
Chain of CYP3A4 (P08684 whole entry): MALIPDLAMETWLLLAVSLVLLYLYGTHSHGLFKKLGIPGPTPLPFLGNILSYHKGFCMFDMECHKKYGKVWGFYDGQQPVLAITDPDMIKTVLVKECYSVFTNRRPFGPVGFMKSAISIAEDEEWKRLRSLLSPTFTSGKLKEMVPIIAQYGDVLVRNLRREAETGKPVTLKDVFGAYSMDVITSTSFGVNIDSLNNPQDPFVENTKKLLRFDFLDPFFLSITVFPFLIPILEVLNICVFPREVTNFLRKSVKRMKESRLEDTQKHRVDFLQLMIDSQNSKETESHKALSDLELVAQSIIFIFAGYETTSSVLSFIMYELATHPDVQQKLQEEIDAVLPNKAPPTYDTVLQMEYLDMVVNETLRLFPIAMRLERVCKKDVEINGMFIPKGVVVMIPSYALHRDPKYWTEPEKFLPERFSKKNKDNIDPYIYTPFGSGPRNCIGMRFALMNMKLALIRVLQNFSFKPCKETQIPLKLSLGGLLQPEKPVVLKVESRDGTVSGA

[5] = molecular target: human CYP2D6 (Homo sapiens, UniProt P10635)
Chain of human CYP2D6 (P10635 whole entry): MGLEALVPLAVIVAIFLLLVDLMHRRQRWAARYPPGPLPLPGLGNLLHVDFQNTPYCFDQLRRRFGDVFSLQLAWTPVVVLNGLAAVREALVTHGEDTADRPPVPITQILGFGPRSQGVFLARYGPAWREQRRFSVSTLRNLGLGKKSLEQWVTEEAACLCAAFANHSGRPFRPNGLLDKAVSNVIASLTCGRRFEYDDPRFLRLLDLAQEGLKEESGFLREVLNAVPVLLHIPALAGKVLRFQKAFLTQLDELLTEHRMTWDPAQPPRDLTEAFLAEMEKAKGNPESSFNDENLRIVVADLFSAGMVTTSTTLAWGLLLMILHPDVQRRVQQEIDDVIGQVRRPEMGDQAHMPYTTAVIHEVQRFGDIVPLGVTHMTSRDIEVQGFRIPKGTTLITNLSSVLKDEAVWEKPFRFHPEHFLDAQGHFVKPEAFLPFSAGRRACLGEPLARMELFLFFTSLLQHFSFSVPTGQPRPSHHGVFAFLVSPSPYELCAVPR

[6] = molecular target: T2, human CYP2C19; experiment: biochemical
[7] = molecular target: T1, human CYP2C9
[8] = molecular target: T3, human CYP1A2
[9] = CYP2C9 AC50 (half-maximal activity concentration)
[10] = CYP1A2 AC50 (half-maximal activity concentration)
[11] = CYP2C19 AC50 (half-maximal activity concentration)

T1 sequence (P11712 whole entry): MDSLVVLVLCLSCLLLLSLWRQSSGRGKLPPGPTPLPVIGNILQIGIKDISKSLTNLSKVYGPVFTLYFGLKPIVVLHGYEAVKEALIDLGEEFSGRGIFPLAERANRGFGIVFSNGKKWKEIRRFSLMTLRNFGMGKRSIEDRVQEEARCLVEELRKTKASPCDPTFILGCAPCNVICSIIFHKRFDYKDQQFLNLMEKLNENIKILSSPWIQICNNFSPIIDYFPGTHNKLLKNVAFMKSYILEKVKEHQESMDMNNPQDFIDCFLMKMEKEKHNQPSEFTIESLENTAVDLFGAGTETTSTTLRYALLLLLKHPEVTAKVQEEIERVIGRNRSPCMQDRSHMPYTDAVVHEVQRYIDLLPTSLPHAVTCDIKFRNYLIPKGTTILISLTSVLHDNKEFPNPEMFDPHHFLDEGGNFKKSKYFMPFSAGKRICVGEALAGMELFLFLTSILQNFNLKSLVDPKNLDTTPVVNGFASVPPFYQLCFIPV
T2 sequence (P33261 whole entry): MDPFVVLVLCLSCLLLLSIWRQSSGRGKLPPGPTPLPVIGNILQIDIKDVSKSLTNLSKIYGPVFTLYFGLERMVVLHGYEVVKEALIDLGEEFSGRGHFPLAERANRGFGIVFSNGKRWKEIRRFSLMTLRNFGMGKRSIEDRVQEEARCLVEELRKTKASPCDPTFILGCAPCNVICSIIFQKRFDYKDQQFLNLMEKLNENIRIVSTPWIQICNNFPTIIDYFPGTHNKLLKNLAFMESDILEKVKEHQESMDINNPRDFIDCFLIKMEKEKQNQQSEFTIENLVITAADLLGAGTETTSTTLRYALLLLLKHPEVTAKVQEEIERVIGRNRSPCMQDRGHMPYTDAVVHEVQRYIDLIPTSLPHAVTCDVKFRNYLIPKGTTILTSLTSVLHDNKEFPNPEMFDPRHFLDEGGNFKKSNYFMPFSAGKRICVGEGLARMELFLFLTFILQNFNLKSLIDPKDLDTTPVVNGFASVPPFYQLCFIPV

Row | Molecule | AC50 [1, 9] [µM] | CYP2C19 AC50 (half-maximal activity concentration) [2] | AC50 [3, 10] [µM] | CYP3A4 AC50 (half-maximal activity concentration) [4] | CYP2D6 AC50 (half-maximal activity concentration) [5] | AC50 [4] [µM] | other results
1 | Oc1ccc(Cc2ccc(O)cc2)cc1 [Bis(4-hydroxyphenyl)methane] | 11.8 | Inconclusive inhibitor | 38.8 | Inconclusive inhibitor | Inconclusive inhibitor | – | –
2 | Nc1c(Cl)cc([N+](=O)[O-])cc1Cl [Dicloran] | 17.9 | – | 2.84 | Inactive | Inactive | – | AC50 [6, 11]: 55.8 µM
3 | C[C@]12CC[C@@H]3c4ccc(O)cc4CC[C@H]3[C@@H]1C[C@@H](O)[C@@H]2O [Estriol] | 21 | – | 34.4 | Inactive | Inactive | – | AC50 [6, 11]: 31.2 µM
4 | COc1ccccc1OC(=O)Oc1ccccc1OC [Guaiacol carbonate] | – | – | – | Inactive | Inactive | – | AC50 [6]: 9.77 µM; AC50 [1]: 14.9 µM; AC50 [3]: 6.41 µM
5 | COC(=O)Nc1nc2ccc(C(=O)c3ccccc3)cc2[nH]1 [Mebendazole] | 3.89 | Inactive | 14 | Inactive | Inactive | – | –
6 | COC(=O)c1ccc(O)cc1 [Methylparaben] | 17.4 | Inactive | 20.8 | Inactive | Inactive | – | –
7 | NC(=O)Cc1cccc(C(=O)c2ccccc2)c1N [Nepafenac] | 25.3 | – | 14.4 | Inactive | Inactive | – | AC50 [6, 11]: 29.9 µM
8 | COC(=O)Nc1nc2ccc(C(=O)c3cccs3)cc2[nH]1 [Nocodazole] | 4.43 | Inconclusive inhibitor | 15.2 | Inactive | Inconclusive inhibitor | – | –
9 | CCNc1nc(Cl)nc(NCC)n1 [Simazine] | 5.09 | Inactive | 7.9 | Inactive | Inconclusive inhibitor | – | –
10 | O=C(CCC1CCN(Cc2ccccc2)CC1)c1ccc2c(c1)NCCCC2.O=C(O)/C=C/C(=O)O [Zanapezil fumerate] | – | Inactive | – | – | – | 3.4 | CYP2C9 AC50 (half-maximal activity concentration) [7]: Inconclusive inhibitor; CYP1A2 AC50 (half-maximal activity concentration) [8]: Inconclusive inhibitor; AC50 [5]: 7.12 µM
11 | C[C@H](CSC(=O)c1ccccc1)C(=O)N1C[C@@H](Sc2ccccc2)C[C@H]1C(=O)O [Zofenopril] | – | – | – | Inactive | Inactive | – | AC50 [6, 11]: 1.71 µM; CYP2C9 AC50 (half-maximal activity concentration) [7]: Inactive; CYP1A2 AC50 (half-maximal activity concentration) [8]: Inactive
12 | CCCCC/C(=C\c1ccccc1)CO [alpha-Amylcinnamyl alcohol] | – | – | – | – | Inconclusive inhibitor | 13.7 | AC50 [2]: 1.66 µM; AC50 [7]: 36.6 µM; AC50 [8]: 3.72 µM
13 | CC1(C)[C@H](C(=O)OCc2cccc(Oc3ccccc3)c2)[C@@H]1C=C(Cl)Cl [cis-Permethrin in cyclohexane] | – | Inactive | – | Inactive | Inactive | – | CYP2C9 AC50 (half-maximal activity concentration) [7]: Inactive; CYP1A2 AC50 (half-maximal activity concentration) [8]: Inactive
14 | CC(C)(C)c1ccc(OP(=O)(Oc2ccccc2)Oc2ccccc2)cc1 [tert-Butylphenyl diphenyl phosphate] | – | – | – | – | Inactive | 8.02 | AC50 [2]: 5.26 µM; AC50 [7]: 5.93 µM; AC50 [8]: 18 µM
15 | Mancozeb | – | – | – | – | Inconclusive inhibitor | 5.17 | AC50 [2]: 4.72 µM; AC50 [7]: 3.48 µM; AC50 [8]: 14.9 µM
16 | Naphthenic acids | – | – | – | – | Inactive | 84.8 | AC50 [2]: 46.4 µM; AC50 [7]: 36.4 µM; AC50 [8]: 59.4 µM
